From PubChem BioAssay (NCI) come the findings set out here.

The structures appear in SMILES notation.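 Dose response: 5 concentrations. Exposure: 48 h. Format: 96-well plates. Endpoint: linear interpolation; highest concentration if not reached. GI50 marks 50% less growth. TGI denotes the concentration required for complete inhibition of growth.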 A value given as a limit tells only on which side of the number the result lay.

Some test systems named below: MOLT-4 leukemia; HL-60(TB) leukemia; HOP-92 NSCLC; MDA-MB-231 breast; SF-295 CNS; SNB-19 CNS; NCI-H460 lung; HCT-15 colon; LXFL 529 NSCLC; DLD-1 colon; M19-MEL melanoma.
Holding throughout (test): NCI-60 cell line screen, 48 h

On to `CC(=O)N1c2ccccc2C23CCN4CC5=CCOC(O)C(C5CC42)C13` (stereo not drawn), for which the TGI in the test on MOLT-4 leukemia, with HL-60(TB) leukemia, with HOP-92 NSCLC, in the test on MDA-MB-231 breast, with SF-295 CNS and with SNB-19 CNS was more than 100 µM throughout. The TGI in the test on NCI-H460 lung and in the test on HCT-15 colon was more than 100 µM throughout.

On to `O=C(Oc1ccc([N+](=O)[O-])cc1)N1CCC(C(O)(c2ccc3c(c2)OCO3)c2ccc3c(c2)OCO3)CC1`, for which the GI50 in the test on MOLT-4 leukemia is more than 100 µM; with HL-60(TB) leukemia, more than 100 µM; with HOP-92 NSCLC, more than 52.3 µM; with MDA-MB-231 breast, more than 100 µM; with SF-295 CNS, more than 100 µM; in the test on SNB-19 CNS, more than 100 µM. Moreover, the GI50 with NCI-H460 lung and in the test on HCT-15 colon was more than 100 µM in each case. The TGI in the test on MOLT-4 leukemia, in the test with HL-60(TB) leukemia, with HOP-92 NSCLC, in the test with MDA-MB-231 breast, in the test on SF-295 CNS and with SNB-19 CNS was more than 100 µM each time. Also, the TGI in the test with NCI-H460 lung and in the test on HCT-15 colon was more than 100 µM in each case.

Take `NC(C(=O)O)C(N)C(=O)O` (stereo not drawn): the TGI in the test on MOLT-4 leukemia, with HL-60(TB) leukemia, in the test with HOP-92 NSCLC, in the test on MDA-MB-231 breast, in the test on SF-295 CNS and in the test on SNB-19 CNS was more than 100 µM in each case. Besides, the TGI in the test with NCI-H460 lung and with HCT-15 colon was more than 100 µM each time.

`Cc1cc(N2CCN(C)CC2)nc(NC2CCCC(Nc3ccnc4cc(Cl)ccc34)C2)n1` (stereo not drawn): the GI50 is 1.77 µM in the test on MOLT-4 leukemia; 2.09 µM in the test on HL-60(TB) leukemia; 1.67 µM with HOP-92 NSCLC; 1.78 µM in the test with MDA-MB-231 breast; 1.68 µM in the test with SF-295 CNS; 3.42 µM with SNB-19 CNS. Besides, the results for the GI50 in the test on NCI-H460 lung and with HCT-15 colon were 2.16 µM and 0.973 µM, respectively. Further, the TGI in the test with MOLT-4 leukemia worked out at 7.59 µM; in the test on HL-60(TB) leukemia it was 4.09 µM; in the test with HOP-92 NSCLC, 3.49 µM; in the test with MDA-MB-231 breast, 4.25 µM; with SF-295 CNS it was 3.25 µM; with SNB-19 CNS it was 13.2 µM. For the same compound, the TGI with NCI-H460 lung is 5.07 µM; in the test with HCT-15 colon, 3.1 µM.

Regarding `O=c1cccc(C#CCCCCOC2CCCO2)o1` (stereo not drawn), the GI50 with MOLT-4 leukemia is 8.06 µM; with HL-60(TB) leukemia it was 20.7 µM; in the test on HOP-92 NSCLC it was 2.17 µM; in the test with MDA-MB-231 breast, 15.4 µM; with SF-295 CNS, 18.4 µM; in the test with SNB-19 CNS, more than 28.6 µM. Further, the GI50 was 6.81 µM with NCI-H460 lung and 19.5 µM with HCT-15 colon. For the same compound, the TGI in the test on MOLT-4 leukemia was more than 30.8 µM; in the test on HL-60(TB) leukemia, 52.9 µM; in the test on HOP-92 NSCLC, 11.5 µM; with MDA-MB-231 breast it was 51.5 µM; with SF-295 CNS, more than 41.4 µM; with SNB-19 CNS, more than 56.5 µM. In addition, the results for the TGI in the test with NCI-H460 lung and in the test with HCT-15 colon were more than 100 µM and 61.4 µM, respectively.

As to `O=C1Nc2ccccc2SC1C1SC(=S)N(Cc2ccccc2)C1=O` (stereo not drawn), the GI50 in the test with MOLT-4 leukemia was 3.57 µM; in the test on HL-60(TB) leukemia, 3.46 µM; in the test on HOP-92 NSCLC, 4.21 µM; in the test on MDA-MB-231 breast, 3.65 µM; in the test on SF-295 CNS, 10.2 µM; with SNB-19 CNS, 11.2 µM. The results for the GI50 in the test on NCI-H460 lung and with HCT-15 colon were 8.21 µM and 3.37 µM, respectively. The TGI with MOLT-4 leukemia was more than 36 µM; in the test with HL-60(TB) leukemia, 32.2 µM; in the test on HOP-92 NSCLC, 24.7 µM; in the test with MDA-MB-231 breast it was 12.9 µM; in the test with SF-295 CNS it was 40.2 µM; in the test with SNB-19 CNS, 29.5 µM. For the same compound, the TGI with NCI-H460 lung came out at 29.8 µM; with HCT-15 colon, 16 µM.

`c1ccc(-c2cc(-c3cc(-c4ccccn4)[nH]n3)n[nH]2)nc1`: the TGI in the test with MOLT-4 leukemia, in the test on HL-60(TB) leukemia, in the test on HOP-92 NSCLC, in the test with MDA-MB-231 breast, with SF-295 CNS and in the test on SNB-19 CNS was more than 100 µM each time. For the same compound, the TGI in the test on NCI-H460 lung and in the test on HCT-15 colon was more than 100 µM each time.

As to `O=C1/C(=C\c2ccccc2)c2ccccc2N1Cc1ccccc1`, the TGI was 5.4 µM in the test on MOLT-4 leukemia; more than 31.6 µM in the test on HL-60(TB) leukemia; 13.8 µM in the test with HOP-92 NSCLC; 13.3 µM in the test with MDA-MB-231 breast; 16.2 µM in the test on SF-295 CNS; 15 µM with SNB-19 CNS. In addition, the TGI was 19 µM in the test on NCI-H460 lung and 14.5 µM with HCT-15 colon.

`Cc1ccc(NC(=O)SCCC(=O)O)cc1NC(=O)SCCC(=O)O`: the TGI was more than 100 µM with MOLT-4 leukemia; more than 100 µM with HL-60(TB) leukemia; more than 100 µM in the test on LXFL 529 NSCLC; more than 100 µM with SF-295 CNS; more than 100 µM with SNB-19 CNS; more than 10 µM in the test on DLD-1 colon. The TGI in the test with NCI-H460 lung and in the test with HCT-15 colon was more than 100 µM in each case.

On to `COC(=O)/C(=C/N1CCN(C(=O)c2ccco2)C1=S)C(C)=O`, for which the GI50 in the test on MOLT-4 leukemia was 20.8 µM; with HL-60(TB) leukemia it was 7.47 µM; with HOP-92 NSCLC, 20.8 µM; in the test with MDA-MB-231 breast, 9.01 µM; in the test on SF-295 CNS, 18.6 µM; with SNB-19 CNS, 41.7 µM. The GI50 in the test with NCI-H460 lung was 2.19 µM; with HCT-15 colon, 2.22 µM. Besides, the TGI was more than 100 µM in the test with MOLT-4 leukemia; 71.5 µM in the test on HL-60(TB) leukemia; 75.4 µM in the test on HOP-92 NSCLC; 26.5 µM in the test on MDA-MB-231 breast; 83.8 µM in the test on SF-295 CNS; 94.8 µM with SNB-19 CNS. Besides, the TGI with NCI-H460 lung came out at 5.88 µM; in the test with HCT-15 colon, 5.77 µM.

For `Cc1cc(NC(=O)CCc2ccc(N3C(N)=NC(N)=NC3(C)C)cc2)ccc1S(=O)(=O)F`, the GI50 with MOLT-4 leukemia is 1.27 µM; in the test on HL-60(TB) leukemia, 3.45 µM; with HOP-92 NSCLC, more than 39 µM; in the test with MDA-MB-231 breast it was more than 87.2 µM; in the test on SF-295 CNS, 2.61 µM; with SNB-19 CNS, 0.269 µM. Further, the results for the GI50 in the test on NCI-H460 lung and in the test on HCT-15 colon were less than 0.0246 µM and 4.51 µM, respectively. Also, the TGI with MOLT-4 leukemia, in the test on HL-60(TB) leukemia, with HOP-92 NSCLC, in the test on MDA-MB-231 breast, with SF-295 CNS and in the test on SNB-19 CNS was more than 100 µM in each case. Also, the results for the TGI in the test on NCI-H460 lung and with HCT-15 colon were 36.1 µM and more than 100 µM, respectively.

As to `COc1ccc(OC)c(CCc2cc(OC)c(OC)cc2C)c1`, the TGI with MOLT-4 leukemia is more than 100 µM; with M19-MEL melanoma, more than 100 µM; in the test on LXFL 529 NSCLC, more than 100 µM; in the test on SF-295 CNS, 47.2 µM; in the test on SNB-19 CNS, more than 100 µM; with DLD-1 colon, more than 100 µM. Also, the TGI in the test on NCI-H460 lung was more than 100 µM.
